One compound from US9034960B2, “Antidrift composition” (Momentive Performance Materials Inc., priority 2012, dated 2015) can be followed below.

A short description of data set [1]: Spreading/wetting: diameter of a 10 microliter drop on polystyrene dish. It is filed as physicochemical. The settings on record: Table 3; aqueous herbicidal spray composition. The procedure:
The spreading ability of the various superspreaders utilized herein was determined by depositing a single drop (10 microliters) of solution onto a clean, flat polystyrene dish. The polystyrene surfaces were cleaned by rinsing with isopropanol and then with deionized water. The dishes were then dried with dry nitrogen gas. The diameters of the resulting drops were then measured. Each solution was tested 2 to 4 times and the average diameter was calculated.

For a further data set, the system named is velvetleaf. The experiment in a line: Herbicidal performance of glyphosate spray compositions sprayed on velvetleaf. It is filed as in vivo. The settings on record: 1% glyphosate IPA salt. The procedure:
Urea inclusion complexes containing PAM-PAA copolymer, sodium salt (PAM-PAA-Na) (Zetag 4100, BASF), both without and with Silicone A superspreader, were made from molten urea as was a comparison urea inclusion complex containing PAM and Silicone A. Aqueous herbicidal spray compositions were prepared containing 0.75% of these urea inclusion complexes and 1% glyphosate isopropylamine salt (“[…]”) herbicide and evaluated for reduction of drift, increased spreading and herbicidal performance when sprayed on velvetleaf.
A solution of 0.042% Silicone A and 1% glyphosate IPA salt (Example 26) was used as a control as was a plain 1% glyphosate IPA salt solution (Example 27).

Take `CC(C)N.O=C(O)CNCP(=O)(O)O` [Example 27, glyphosate isopropylamine salt]: the “Drop Spread Diameter” value in data set [1] is 4.8 mm. For the same compound, the “% Control after 1 week” value in the data set on velvetleaf (after 1 week) is 25%. Besides, the “% Control after 2 weeks” value in the data set with velvetleaf (after 2 weeks) is reported as 81%.
